Measurements reported in ChEMBL document CHEMBL4145544, “Discovery and optimization of 1-(1H-indol-1-yl)ethanone derivatives as CBP/EP300 bromodomain inhibitors for the treatment of castration-resistant prostate cancer” (Eur J Med Chem, 2018).
Calls of active or inactive are those of the source. No cut-off for these calls is given here.

What was measured:
[1] = system: CWR22R; assay: Anticlonogenic activity against human 22Rv1 cells after 14 days by crystal violet staining based assay; assay type: functional, cell-based
[2] = system: MCF7; assay: Antiproliferative activity against human MCF7 cells after 96 hrs by Cell-Titer Glo assay; assay type: functional, cell-based; conditions: MCF7, 96 h
[3] = system: CWR22R; assay: Anticlonogenic activity against human 22Rv1 cells at 4 uM after 14 days by crystal violet staining based assay relative to control; assay type: functional
[4] = system: LNCaP C4-2B; assay: Anticlonogenic activity against human C4-2B cells after 14 days by crystal violet staining based assay; assay type: functional, cell-based
[5] = target: T1, CREB-binding protein/Histone acetyltransferase p300 (Homo sapiens) (UniProt Q09472+Q92793); assay: Inhibition of EP300/CBP in human LNCAP cells assessed as downregulation of AR-regulated TMPRSS2 mRNA expression at 1 to 5 uM after 48 hrs by qRT-PCR method; assay type: cell-based
[6] = system: CWR22R; assay: cells; conditions: Homo sapiens, 22Rv1, 72 h
Description: (§1) Antiproliferative activity against human 22Rv1 cells after 72 hrs by Cell-Titer Glo assay

[7] = system: Hs-578T; assay: Antiproliferative activity against human Hs 578T cells after 72 hrs by Cell-Titer Glo assay; assay type: functional, cell-based
[8] = target: T1, CREB-binding protein/Histone acetyltransferase p300 (Homo sapiens); assay: Inhibition of EP300/CBP in human LNCAP cells assessed as downregulation of full length AR mRNA expression at 1 to 5 uM after 48 hrs by qRT-PCR method; assay type: cell-based
[9] = system: MDA-MB-231; assay: Antiproliferative activity against human MDA-MB-231 cells after 96 hrs by Cell-Titer Glo assay; assay type: functional, cell-based; conditions: MDA-MB-231, 96 h
[10] = system: L02; assay: Antiproliferative activity against human HL7702 cells after 96 hrs by Cell-Titer Glo assay; assay type: cell-based; conditions: L02, 96 h
[11] = system: HFL1; assay: Antiproliferative activity against HFL1 cells after 72 hrs by Cell-Titer Glo assay; assay type: cell-based; conditions: Homo sapiens, HFL1, 72 h
[12] = target: T1, CREB-binding protein/Histone acetyltransferase p300 (Homo sapiens); assay: Inhibition of EP300/CBP in human LNCAP cells assessed as downregulation of AR-regulated PSA mRNA expression at 1 to 5 uM after 48 hrs by qRT-PCR method; assay type: cell-based
[13] = system: CWR22R; assay: Potency index, ratio of enzalutamide IC50 to compound IC50 for antiproliferative activity against human 22Rv1 cells; assay type: functional
[14] = system: LNCaP; assay: Antiproliferative activity against human LNCAP cells after 72 hrs by Cell-Titer Glo assay; assay type: functional, cell-based
[15] = target: T1, CREB-binding protein/Histone acetyltransferase p300 (Homo sapiens); assay: Inhibition of EP300/CBP in human LNCAP cells assessed as downregulation of Myc mRNA expression at 1 to 5 uM after 48 hrs by qRT-PCR method; assay type: cell-based
[16] = system: LNCaP; assay: Potency index, ratio of enzalutamide IC50 to compound IC50 for antiproliferative activity against human LNCAP cells; assay type: functional
[17] = target: T1, CREB-binding protein/Histone acetyltransferase p300 (Homo sapiens); assay: Inhibition of EP300/CBP in human LNCAP cells transfected with PSA-Luc reporter plasmid after 24 hrs by luciferase reporter gene assay; assay type: cell-based
[18] = target: T1, CREB-binding protein/Histone acetyltransferase p300 (Homo sapiens); assay: Inhibition of EP300/CBP in human LNCAP cells assessed as downregulation of AR-regulated KLK2 mRNA expression at 1 to 5 uM after 48 hrs by qRT-PCR method; assay type: cell-based
[19] = system: PC-3; assay: Antiproliferative activity against human PC3 cells after 96 hrs by Cell-Titer Glo assay; assay type: functional, cell-based; conditions: PC-3, 96 h
[20] = system: LNCaP C4-2B; assay: Anticlonogenic activity against human C4-2B cells at 4 uM after 14 days by crystal violet staining based assay relative to control; assay type: functional
[21] = target: T2, Transcription initiation factor TFIID subunit 1 (Homo sapiens, UniProt P21675); assay: Binding affinity to human His6-tagged TAF-1 (R1377 to D1503 residues) expressed in Escherichia coli BL21(DE3) assessed as change in melting temperature at 200 uM after 30 mins by SYPRO orange dye based fluorescence assay
[22] = target: Bromodomain-containing protein 9 (Homo sapiens) (UniProt Q9H8M2); assay: Binding affinity to human His6-tagged BRD9 (L14 to Q134 residues) expressed in Escherichia coli BL21(DE3) assessed as change in melting temperature at 200 uM after 30 mins by SYPRO orange dye based fluorescence assay
[23] = target: T3, Bromodomain-containing protein 4 (Homo sapiens, UniProt O60885); assay: Binding affinity to human His6-tagged BRD4 bromodomain-1 (N44 to E168 residues) expressed in Escherichia coli BL21(DE3) assessed as change in melting temperature at 200 uM after 30 mins by SYPRO orange dye based fluorescence assay
[24] = target: T4, Transcription intermediary factor 1-alpha (Homo sapiens, UniProt O15164); assay: Inhibition of biotinylated-H4KAc4 binding to human His6-tagged TIF-1 (G896 to E1014 residues) expressed in Escherichia coli BL21(DE3) after 2.5 hrs by luminescence-based AlphaScreen assay
T4 sequence (O15164 whole entry): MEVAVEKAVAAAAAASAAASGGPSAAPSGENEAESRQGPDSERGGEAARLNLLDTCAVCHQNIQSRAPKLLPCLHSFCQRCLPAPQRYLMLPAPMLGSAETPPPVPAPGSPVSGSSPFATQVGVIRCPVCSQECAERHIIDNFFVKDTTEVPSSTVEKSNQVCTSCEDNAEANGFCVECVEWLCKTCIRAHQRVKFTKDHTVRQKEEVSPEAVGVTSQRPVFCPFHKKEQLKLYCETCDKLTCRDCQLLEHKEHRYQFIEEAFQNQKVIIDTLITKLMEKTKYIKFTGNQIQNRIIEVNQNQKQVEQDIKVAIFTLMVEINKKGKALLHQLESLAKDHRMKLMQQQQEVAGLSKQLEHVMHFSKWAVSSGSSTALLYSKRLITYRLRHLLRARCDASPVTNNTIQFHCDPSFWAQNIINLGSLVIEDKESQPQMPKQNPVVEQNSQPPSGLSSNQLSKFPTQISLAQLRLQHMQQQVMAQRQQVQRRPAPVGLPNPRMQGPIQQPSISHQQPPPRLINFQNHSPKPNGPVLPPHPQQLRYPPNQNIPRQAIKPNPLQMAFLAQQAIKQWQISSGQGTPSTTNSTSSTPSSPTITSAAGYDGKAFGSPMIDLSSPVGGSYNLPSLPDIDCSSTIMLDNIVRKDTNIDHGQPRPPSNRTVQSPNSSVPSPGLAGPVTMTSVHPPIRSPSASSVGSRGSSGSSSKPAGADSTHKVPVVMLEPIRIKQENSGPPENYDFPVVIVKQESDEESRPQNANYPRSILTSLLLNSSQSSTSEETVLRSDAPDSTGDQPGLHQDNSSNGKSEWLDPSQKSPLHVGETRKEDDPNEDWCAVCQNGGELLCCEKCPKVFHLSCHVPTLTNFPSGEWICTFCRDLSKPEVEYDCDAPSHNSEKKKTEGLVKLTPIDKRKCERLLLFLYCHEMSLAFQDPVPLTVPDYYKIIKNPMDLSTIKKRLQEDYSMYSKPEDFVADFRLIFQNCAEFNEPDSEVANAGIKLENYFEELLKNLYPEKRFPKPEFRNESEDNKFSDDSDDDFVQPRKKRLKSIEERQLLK

[25] = target: Transcription intermediary factor 1-alpha (Homo sapiens) (UniProt O15164); assay: Binding affinity to human His6-tagged TIF-1 (G896 to E1014 residues) expressed in Escherichia coli BL21(DE3) assessed as change in melting temperature at 200 uM after 30 mins by SYPRO orange dye based fluorescence assay
[26] = target: T5, CREB-binding protein (Homo sapiens, UniProt Q92793); assay: Binding affinity to human His6-tagged CBP (R1081 to G1197 residues) expressed in Escherichia coli BL21(DE3) assessed as change in melting temperature at 200 uM after 30 mins by SYPRO orange dye based fluorescence assay
[27] = target: T6, Bromodomain adjacent to zinc finger domain protein 2B (Homo sapiens, UniProt Q9UIF8); assay: Binding affinity to human His6-tagged BAZ2B (S1858 to S1972 residues) expressed in Escherichia coli BL21(DE3) assessed as change in melting temperature at 200 uM after 30 mins by SYPRO orange dye based fluorescence assay
[28] = target: T6, Bromodomain adjacent to zinc finger domain protein 2B; assay: Inhibition of biotinylated-H4KAc4 binding to human His6-tagged BAZ2B (S1858 to S1972 residues) expressed in Escherichia coli BL21(DE3) after 2.5 hrs by luminescence-based AlphaScreen assay
[29] = target: T3, Bromodomain-containing protein 4; assay: Inhibition of biotinylated-H4KAc4 binding to human His6-tagged BRD4 bromodomain-1 (N44 to E168 residues) expressed in Escherichia coli BL21(DE3) after 2.5 hrs by luminescence-based AlphaScreen assay
[30] = target: T7, Histone acetyltransferase p300 (Homo sapiens, UniProt Q09472); assay: Binding affinity to human His6-tagged EP300 (A1040 to G1161 residues) expressed in Escherichia coli BL21(DE3) assessed as change in melting temperature at 200 uM after 30 mins by SYPRO orange dye based fluorescence assay
[31] = target: T7, Histone acetyltransferase p300; assay: Inhibition of biotinylated-H4KAc4 binding to human His6-tagged EP300 (A1040 to G1161 residues) expressed in Escherichia coli BL21(DE3) after 2.5 hrs by luminescence-based AlphaScreen assay
[32] = target: T5, CREB-binding protein; assay: Inhibition of biotinylated-H4KAc4 binding to human His6-tagged CBP (R1081 to G1197 residues) expressed in Escherichia coli BL21(DE3) after 2.5 hrs by luminescence-based AlphaScreen assay
Target sequence in this assay (Q92793 whole entry, the tested form may be a part): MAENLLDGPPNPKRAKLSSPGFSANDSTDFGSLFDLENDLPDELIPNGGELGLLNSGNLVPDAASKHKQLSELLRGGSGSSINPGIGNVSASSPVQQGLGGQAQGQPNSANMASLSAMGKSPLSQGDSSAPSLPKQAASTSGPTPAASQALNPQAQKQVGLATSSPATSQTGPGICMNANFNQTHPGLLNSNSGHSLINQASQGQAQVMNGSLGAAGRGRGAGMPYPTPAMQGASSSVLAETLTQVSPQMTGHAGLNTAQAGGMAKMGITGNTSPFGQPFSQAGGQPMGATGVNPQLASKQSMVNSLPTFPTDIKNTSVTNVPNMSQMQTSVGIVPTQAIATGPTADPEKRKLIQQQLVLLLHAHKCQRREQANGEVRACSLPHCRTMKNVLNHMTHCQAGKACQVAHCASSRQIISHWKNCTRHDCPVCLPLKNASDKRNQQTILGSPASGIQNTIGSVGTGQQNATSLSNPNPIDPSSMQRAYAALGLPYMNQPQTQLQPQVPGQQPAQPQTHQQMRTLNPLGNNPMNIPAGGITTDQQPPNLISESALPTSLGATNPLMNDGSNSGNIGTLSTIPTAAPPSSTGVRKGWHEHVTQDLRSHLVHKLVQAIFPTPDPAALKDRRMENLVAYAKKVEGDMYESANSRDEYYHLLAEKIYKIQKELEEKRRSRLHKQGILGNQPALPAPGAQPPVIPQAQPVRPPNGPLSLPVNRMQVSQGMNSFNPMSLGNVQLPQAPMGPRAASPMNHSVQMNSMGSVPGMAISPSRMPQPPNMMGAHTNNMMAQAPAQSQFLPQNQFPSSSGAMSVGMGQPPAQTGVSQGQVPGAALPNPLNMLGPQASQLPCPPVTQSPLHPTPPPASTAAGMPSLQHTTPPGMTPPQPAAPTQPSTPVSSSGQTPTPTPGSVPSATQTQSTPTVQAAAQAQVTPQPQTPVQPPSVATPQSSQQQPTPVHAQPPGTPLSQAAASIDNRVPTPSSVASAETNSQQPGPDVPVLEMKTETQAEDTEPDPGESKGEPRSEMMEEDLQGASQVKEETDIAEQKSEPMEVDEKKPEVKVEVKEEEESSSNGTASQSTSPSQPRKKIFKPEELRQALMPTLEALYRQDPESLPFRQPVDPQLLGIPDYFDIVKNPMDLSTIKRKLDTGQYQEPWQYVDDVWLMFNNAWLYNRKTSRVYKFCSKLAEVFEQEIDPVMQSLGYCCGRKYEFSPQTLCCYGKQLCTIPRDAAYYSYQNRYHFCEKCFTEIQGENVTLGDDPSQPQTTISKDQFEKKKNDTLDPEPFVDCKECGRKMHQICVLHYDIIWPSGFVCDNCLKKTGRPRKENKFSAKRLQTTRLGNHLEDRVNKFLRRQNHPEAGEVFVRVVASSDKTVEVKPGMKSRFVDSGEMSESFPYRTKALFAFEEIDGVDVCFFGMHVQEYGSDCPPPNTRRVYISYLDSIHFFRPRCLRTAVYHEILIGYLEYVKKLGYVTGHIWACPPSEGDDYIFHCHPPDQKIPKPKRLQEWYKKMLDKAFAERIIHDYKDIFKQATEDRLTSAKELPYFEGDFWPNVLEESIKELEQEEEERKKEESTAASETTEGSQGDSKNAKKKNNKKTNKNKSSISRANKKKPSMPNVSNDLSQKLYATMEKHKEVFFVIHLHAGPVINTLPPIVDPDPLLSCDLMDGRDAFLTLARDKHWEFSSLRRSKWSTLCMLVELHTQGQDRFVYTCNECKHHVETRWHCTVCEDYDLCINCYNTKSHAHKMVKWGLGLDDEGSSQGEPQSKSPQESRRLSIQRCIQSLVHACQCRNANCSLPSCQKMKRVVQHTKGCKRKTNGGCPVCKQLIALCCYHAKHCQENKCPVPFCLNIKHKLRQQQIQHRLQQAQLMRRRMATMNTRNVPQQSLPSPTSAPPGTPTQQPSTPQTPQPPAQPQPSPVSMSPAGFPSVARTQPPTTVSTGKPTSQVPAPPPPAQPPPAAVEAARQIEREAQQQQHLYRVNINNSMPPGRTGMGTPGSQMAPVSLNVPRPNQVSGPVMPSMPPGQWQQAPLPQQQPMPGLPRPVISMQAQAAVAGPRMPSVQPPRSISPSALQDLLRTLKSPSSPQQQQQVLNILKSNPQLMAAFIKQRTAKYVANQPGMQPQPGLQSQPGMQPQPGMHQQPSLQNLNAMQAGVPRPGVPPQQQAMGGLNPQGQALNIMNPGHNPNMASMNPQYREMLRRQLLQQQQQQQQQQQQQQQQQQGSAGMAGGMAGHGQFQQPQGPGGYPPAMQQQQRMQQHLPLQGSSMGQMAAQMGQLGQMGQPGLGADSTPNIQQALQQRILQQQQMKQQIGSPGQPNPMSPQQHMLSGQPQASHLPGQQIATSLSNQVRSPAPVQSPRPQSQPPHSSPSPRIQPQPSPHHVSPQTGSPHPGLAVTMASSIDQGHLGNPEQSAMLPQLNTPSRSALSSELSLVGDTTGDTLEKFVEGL

[33] = target: T8, Bromodomain-containing protein 9 (Homo sapiens, UniProt Q9H8M2); assay: Inhibition of biotinylated-H4KAc4 binding to human His6-tagged BRD9 (L14 to Q134 residues) expressed in Escherichia coli BL21(DE3) after 2.5 hrs by luminescence-based AlphaScreen assay
T8 sequence (Q9H8M2 whole entry): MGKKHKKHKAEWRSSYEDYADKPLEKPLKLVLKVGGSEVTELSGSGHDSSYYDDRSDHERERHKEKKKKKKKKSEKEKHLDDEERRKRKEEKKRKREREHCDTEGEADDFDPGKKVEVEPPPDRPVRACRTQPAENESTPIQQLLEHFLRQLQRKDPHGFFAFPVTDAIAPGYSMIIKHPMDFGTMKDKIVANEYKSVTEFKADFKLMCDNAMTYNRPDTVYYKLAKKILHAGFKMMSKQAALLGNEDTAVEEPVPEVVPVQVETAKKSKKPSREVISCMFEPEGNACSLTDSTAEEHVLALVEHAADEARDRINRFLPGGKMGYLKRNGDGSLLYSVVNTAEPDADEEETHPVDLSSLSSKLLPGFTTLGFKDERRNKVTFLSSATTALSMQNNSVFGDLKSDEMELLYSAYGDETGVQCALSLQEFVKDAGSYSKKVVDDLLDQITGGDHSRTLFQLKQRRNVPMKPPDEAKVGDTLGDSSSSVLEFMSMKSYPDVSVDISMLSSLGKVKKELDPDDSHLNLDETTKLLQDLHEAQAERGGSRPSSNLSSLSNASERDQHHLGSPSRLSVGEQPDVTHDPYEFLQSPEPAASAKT

[34] = target: T9, Histone acetyltransferase KAT2B (Homo sapiens, UniProt Q92831); assay: Binding affinity to human His6-tagged PCAF (G715 to D831 residues) expressed in Escherichia coli BL21(DE3) assessed as change in melting temperature at 200 uM after 30 mins by SYPRO orange dye based fluorescence assay
[35] = target: T9, Histone acetyltransferase KAT2B; assay: Inhibition of biotinylated-H4KAc4 binding to human His6-tagged PCAF (G715 to D831 residues) expressed in Escherichia coli BL21(DE3) after 2.5 hrs by luminescence-based AlphaScreen assay
[36] = system: CWR22R
Description: as §1

[37] = target: T2, Transcription initiation factor TFIID subunit 1; assay: Inhibition of biotinylated-H4KAc4 binding to human His6-tagged TAF-1 (R1377 to D1503 residues) expressed in Escherichia coli BL21(DE3) after 2.5 hrs by luminescence-based AlphaScreen assay

T1 sequence (Q09472 whole entry, looked up): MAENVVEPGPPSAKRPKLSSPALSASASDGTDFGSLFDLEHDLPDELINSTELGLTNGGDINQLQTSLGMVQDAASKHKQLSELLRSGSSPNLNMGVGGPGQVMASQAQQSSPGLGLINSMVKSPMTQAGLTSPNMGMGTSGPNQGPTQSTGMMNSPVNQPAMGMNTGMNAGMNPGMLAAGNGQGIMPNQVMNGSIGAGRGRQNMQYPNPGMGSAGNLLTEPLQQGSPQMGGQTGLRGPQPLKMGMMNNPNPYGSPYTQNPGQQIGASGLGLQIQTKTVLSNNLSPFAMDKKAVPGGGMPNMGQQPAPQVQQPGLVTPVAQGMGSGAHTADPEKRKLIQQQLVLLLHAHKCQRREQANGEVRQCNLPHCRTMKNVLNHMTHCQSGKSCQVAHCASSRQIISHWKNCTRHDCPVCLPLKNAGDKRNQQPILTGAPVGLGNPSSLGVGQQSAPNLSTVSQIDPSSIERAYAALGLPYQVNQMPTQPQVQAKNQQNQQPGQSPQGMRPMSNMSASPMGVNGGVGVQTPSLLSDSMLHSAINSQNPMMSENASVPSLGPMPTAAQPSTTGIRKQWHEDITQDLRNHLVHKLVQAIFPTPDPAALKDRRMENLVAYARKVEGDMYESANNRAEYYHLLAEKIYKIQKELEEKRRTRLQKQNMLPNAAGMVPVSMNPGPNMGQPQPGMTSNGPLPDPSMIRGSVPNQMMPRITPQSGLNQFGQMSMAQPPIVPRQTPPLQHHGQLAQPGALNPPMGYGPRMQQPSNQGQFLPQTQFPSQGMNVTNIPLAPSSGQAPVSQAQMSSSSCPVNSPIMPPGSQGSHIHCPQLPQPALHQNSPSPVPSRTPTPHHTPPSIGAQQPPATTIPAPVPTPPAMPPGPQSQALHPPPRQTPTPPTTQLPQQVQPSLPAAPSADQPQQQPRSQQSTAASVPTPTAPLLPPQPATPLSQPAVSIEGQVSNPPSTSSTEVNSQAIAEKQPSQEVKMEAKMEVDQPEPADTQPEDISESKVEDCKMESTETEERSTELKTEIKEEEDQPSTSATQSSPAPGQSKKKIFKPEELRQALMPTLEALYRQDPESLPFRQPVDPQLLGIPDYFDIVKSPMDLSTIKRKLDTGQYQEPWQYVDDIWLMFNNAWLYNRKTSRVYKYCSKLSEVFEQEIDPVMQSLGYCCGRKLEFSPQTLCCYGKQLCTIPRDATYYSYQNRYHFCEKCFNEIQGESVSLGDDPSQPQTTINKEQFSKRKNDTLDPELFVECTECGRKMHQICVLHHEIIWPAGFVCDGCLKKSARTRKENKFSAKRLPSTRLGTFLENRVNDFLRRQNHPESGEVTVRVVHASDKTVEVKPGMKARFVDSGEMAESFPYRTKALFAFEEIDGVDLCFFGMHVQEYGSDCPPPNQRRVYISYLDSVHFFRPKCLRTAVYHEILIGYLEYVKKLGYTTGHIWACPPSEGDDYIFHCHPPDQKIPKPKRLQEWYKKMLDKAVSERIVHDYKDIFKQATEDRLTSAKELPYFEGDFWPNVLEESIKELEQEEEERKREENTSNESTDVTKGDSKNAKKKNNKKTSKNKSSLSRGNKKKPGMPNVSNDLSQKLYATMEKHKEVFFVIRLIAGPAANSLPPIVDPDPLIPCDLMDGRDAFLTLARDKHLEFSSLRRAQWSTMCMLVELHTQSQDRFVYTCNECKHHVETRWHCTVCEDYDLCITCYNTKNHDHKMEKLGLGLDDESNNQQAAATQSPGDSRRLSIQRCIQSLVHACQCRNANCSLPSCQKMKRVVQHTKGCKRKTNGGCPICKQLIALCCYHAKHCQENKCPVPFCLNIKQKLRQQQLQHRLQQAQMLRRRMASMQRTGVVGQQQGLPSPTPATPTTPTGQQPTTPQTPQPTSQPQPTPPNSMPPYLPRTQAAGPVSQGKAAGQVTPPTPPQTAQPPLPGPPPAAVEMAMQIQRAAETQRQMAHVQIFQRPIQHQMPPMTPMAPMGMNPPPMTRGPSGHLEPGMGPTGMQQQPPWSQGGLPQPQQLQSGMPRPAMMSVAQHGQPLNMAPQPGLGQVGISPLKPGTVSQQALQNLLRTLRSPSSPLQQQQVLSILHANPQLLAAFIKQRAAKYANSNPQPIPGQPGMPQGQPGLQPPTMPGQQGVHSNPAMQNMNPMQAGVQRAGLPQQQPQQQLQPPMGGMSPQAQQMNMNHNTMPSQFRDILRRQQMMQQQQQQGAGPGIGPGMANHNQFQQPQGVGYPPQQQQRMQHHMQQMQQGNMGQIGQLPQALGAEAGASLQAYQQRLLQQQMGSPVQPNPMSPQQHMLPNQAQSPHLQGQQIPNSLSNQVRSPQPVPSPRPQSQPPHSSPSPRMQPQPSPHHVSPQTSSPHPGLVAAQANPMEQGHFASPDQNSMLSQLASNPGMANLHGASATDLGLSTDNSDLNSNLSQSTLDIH
T1 sequence (Q92793 whole entry, looked up): as the sequence (Q92793 whole entry, the tested form may be a part) above
T7 sequence (Q09472 whole entry, the tested form may be a part): as the sequence (Q09472 whole entry, looked up) above

COc1ccc2c(c1)c(C(=O)Nc1cc(C(=O)OC(C)(C)C)cc(-c3cnn(C)c3)c1F)cn2C(C)=O
Activity [1]: Dose-dependent effect
IC50 [2]: 7.46 µM
Activity [3]: <10%
Activity [4]: Dose-dependent effect
inhibition [5]: Active
IC50 [6]: 2130 nM
IC50 [7]: 15.1 µM
inhibition [8]: Active
IC50 [9]: 36 µM
IC50 [10]: 40 µM
IC50 [11]: > 100 µM
inhibition [12]: Active
Ratio IC50 [13]: 17
IC50 ([14]; Homo sapiens, LNCaP, 72 h, read-out: IC50): 2010 nM
inhibition [15]: Active
Ratio IC50 [16]: 17
inhibition [17]: Dose-dependent effect
inhibition [18]: Active
IC50 [19]: 25.8 µM
Activity [20]: <10%

COc1ccc2c(c1)c(C(=O)Nc1cc(C(=O)O)cc(-c3cnn(C)c3)c1)cn2C(C)=O
Activity [1]: inactive
Activity [4]: inactive
ΔTm [21]: 0.9 °C
ΔTm [22]: -0.9 °C
ΔTm [23]: 1.1 °C
IC50 [24]: > 20 µM
ΔTm [25]: -0.3 °C
ΔTm [26]: 5.7 °C
ΔTm [27]: 1.5 °C
IC50 [28]: > 20 µM
IC50 [29]: > 20 µM
IC50 ([14]; lncap): Not Active
ΔTm [30]: 5.7 °C
IC50 [31]: 510 nM
IC50 [32]: 160 nM
IC50 [33]: > 20 µM
ΔTm [34]: -1.5 °C
IC50 [35]: > 20 µM
IC50 [36]: Not Active
IC50 [37]: > 20 µM
